According to patent publication US20220401514A1, “ANTIMICROBIAL, BACTERIOPHAGE-DERIVED POLYPEPTIDES AND THEIR USE AGAINST GRAM-NEGATIVE AND ACID-FAST BACTERIA” (CONTRAFECT CORPORATION, priority 2019, published 2022):
Read-outs that look alike come from different tables or passages of the source. Ends that are not written are not given here.

Assays:
[1] = system: carbapenem-resistant P. aeruginosa clinical isolate CFS-1292; assay: MIC by modified CLSI broth microdilution against P. aeruginosa CFS-1292 (CAA, CAA + human serum); assay type: cell-based, Pseudomonas aeruginosa; conditions: for MIC (μg/mL) against CFS-1292 in 100% CAA (1st run/2nd run): 1st run or single value
[2] = system: Enterobacter cloacae; assay: microbe, parasite or virus in culture; assay type: cell-based; conditions: for MIC: Enterobacter cloacae ATCC 13047, CAA supplemented with human serum
Procedure: (§1) Determination of Minimal Inhibitory Concentrations (MIC).
(§2) Additional MIC testing was performed for several peptides against the ESKAPE pathogens Escherichia coli, Enterobacter cloacae, Klebsiella pneumoniae, and Acinetobacter baumannii, in CAA supplemented with human serum (Table D).

[3] = system: Escherichia coli; assay: microbe, parasite or virus in culture; assay type: cell-based; conditions: for MIC: Escherichia coli ATCC 25922, CAA supplemented with human serum
Procedure: as §1, §2

[4] = system: Klebsiella pneumoniae; assay type: cell-based; conditions: for MIC: Klebsiella pneumoniae HM-44, CAA supplemented with human serum; for MIC50 / MIC100 / MIC Range: K. pneumoniae isolates (n per peptide in table)
Procedure: as §1, §2

[5] = system: Acinetobacter baumannii; assay: microbe, parasite or virus in culture; assay type: cell-based; conditions: for MIC: Acinetobacter baumannii ATCC BAA 747, CAA supplemented with human serum; for MIC50 / MIC100 / MIC Range: A. baumannii isolates (n per peptide in table)
[6] = Stability assessment in 100% CAA; assay type: in vitro ADME; parameters: unit not given beside the values
Procedure: Stability was assessed after incubation in 100% human serum at 37° C. after 10 minutes, 1 hour, and 2 hours.
Stability assessment was further conducted in 100% CAA and rabbit serum using the same methodology discussed above.

[7] = system: M. smegmatis; assay: 45 hr MIC against M. smegmatis (NTM), Mueller Hinton broth; assay type: cell-based, Mycobacterium smegmatis
[8] = system: M. fortuitum; assay: 45 hr MIC against M. fortuitum (NTM); assay type: cell-based, Mycobacterium fortuitum; conditions: M. fortuitum subsp. Fortuitum da Costa Cruz. ATCC 6841
[9] = system: M. avium; assay: 45 hr MIC against M. avium (NTM); assay type: cell-based, Mycobacterium avium; conditions: M. avium Chester ATCC 700898
[10] = system: M. scrofulaceum; assay: 45 hr MIC against M. scrofulaceum (NTM); assay type: cell-based, Mycobacterium scrofulaceum; conditions: M. scrofulaceum Prissick and Masson ATCC 19981
[11] = system: M. intracellulare; assay: 45 hr MIC against M. intracellulare (NTM); assay type: cell-based, Mycobacterium intracellulare; conditions: M. intracellulare (Cuttino and McCabe) Runyon ATCC 13950
[12] = system: M. kansasii Hauduroy ATCC 12478; assay: 45 hr MIC against M. kansasii (NTM), Mueller Hinton broth; assay type: cell-based, Mycobacterium kansasii
[13] = system: Mycobacterium tuberculosis strains
Procedure: MIC values for various Chp peptides were determined using the CLSI method for broth microdilution in 96-well microtiter format.
Next, MIC values for various Chp peptides were determined using the CLSI method above for broth microdilution in 96-well microtiter format for two different Mycobacterium tuberculosis strains. The MIC was determined as explained above for the NTM strains.

[14] = system: Pseudomonas aeruginosa; assay: microbe, parasite or virus in culture; assay type: cell-based; conditions: P. aeruginosa isolates (n per peptide in table)
[15] = system: S. maltophilia; assay: MIC against S. maltophilia isolates; assay type: cell-based, Stenotrophomonas maltophilia; conditions: S. maltophilia isolates (n per peptide in table)
Procedure: as §1
In addition to the results discussed above in Example 3, further testing was conducted on several Chp peptides. MIC values were determined against different species, including P. aeruginosa, K. pneumoniae, A. baumannii, E. cloacae, E. coli, and S. maltophilia, and the results are presented below in Tables 40-45, wherein n=number of isolates tested for each species and MIC is measured as μg/mL.

[16] = system: P. aeruginosa (CFS 1292); assay: microbe, parasite or virus in culture; assay type: cell-based, Pseudomonas aeruginosa
[17] = system: carbapenem-resistant bacterial strains; assay: organism not typed; assay type: cell-based
Description: as §1

[18] = Mycobacterium tuberculosis (Zopf) Lehmann and Neumann ATCC 35817
[19] = Mycobacterium tuberculosis (Zopf) Lehmann and Neumann ATCC 25177
[20] = E. cloacae isolates (n per peptide in table)
[21] = E. coli isolates (n per peptide in table)
[22] = carbapenem-resistant isolate PA19
[23] = carbapenem-resistant isolate PA20
[24] = carbapenem-resistant isolate PA21
[25] = carbapenem-resistant isolate PA22
[26] = carbapenem-resistant isolate PA23
[27] = carbapenem-resistant isolate PA24
[28] = carbapenem-resistant isolate WLC-452

| Compound | MIC (μg/mL) against CFS-1292 in 100% CAA (1st run/2nd run) [1] | MIC (μg/mL) against CFS-1292 in CAA + […] human serum [1] | MIC [2] | MIC [3] | MIC [4] | MIC [5] | MIC (100% CAA) [6] | 45 hr MIC ([7]; M. smegmatis MC^2 155, Run #1) | 45 hr MIC ([7]; M. smegmatis MC^2 155, Run #2) | 45 hr MIC [8] | 45 hr MIC [9] | 45 hr MIC [10] | 45 hr MIC [11] | 45 hr MIC [12] | MIC50 [14] | MIC100 [14] | MIC50 [4] | MIC100 [4] | MIC50 [5] | MIC100 [5] | other results |
| --- | --- | --- | --- | --- | --- | --- | --- | --- | --- | --- | --- | --- | --- | --- | --- | --- | --- | --- | --- | --- | --- |
| MKMRKRTDKRVFTRTAAKSKKVNIAPKIFRGGIRL [Unp1] | 4 µg/mL | 4 µg/mL | >32 µg/mL | 0.5 µg/mL | 8 µg/mL | 8 µg/mL | 4 | 4 µg/mL | 2 µg/mL | 8 µg/mL | 1 µg/mL | 8 µg/mL | 32 µg/mL | 8 µg/mL | – | – | – | – | – | – | – |
| MKLTKSDIAYREALGLSTTDPLPAEIGMVTRRANRLKRPRKTARFR [Myo1] | >64 µg/mL | – | – | – | – | – | – | >64 µg/mL | >64 µg/mL | >64 µg/mL | 8 µg/mL | – | >64 µg/mL | >64 µg/mL | – | – | – | – | – | – | MIC [13, 18]: 32 µg/mL |
| MKPLKRKPVQKARSAAKFRRNVSTVKAANMAVKPMRGGWRF [Fen7875] | 2 µg/mL | 2 µg/mL | – | – | – | – | 4 | 4 µg/mL | 16 µg/mL | 8 µg/mL | 2 µg/mL | 16 µg/mL | 8 µg/mL | 32 µg/mL | – | – | – | – | – | – | – |
| MRRYNVNKGKSAKKFRKQVSKTKVANLRSNPMRGGWRL [AGT915] | 2 µg/mL | 0.25 µg/mL | – | – | – | – | 2 | 4 µg/mL | 1 µg/mL | 1 µg/mL | >64 µg/mL | >64 µg/mL | >64 µg/mL | 1 µg/mL | – | – | – | – | – | – | – |
| MAKKIRNKARDRRIFTRTASRMHKANRTPRFMRGGIRL [ALCES1] | – | – | – | – | – | – | – | 1 µg/mL | 2 µg/mL | 4 µg/mL | 8 µg/mL | 2 µg/mL | 2 µg/mL | 2 µg/mL | >8 µg/mL | >8 µg/mL | >8 µg/mL | >8 µg/mL | 2 µg/mL | 2 µg/mL | MIC Range [5]: 1 to 2 µg/mL; MIC50 [15]: 4 µg/mL; MIC100 [15]: 8 µg/mL; MIC [13, 19]: 32 µg/mL; MIC [13, 18]: 8 µg/mL |
| NC[C@H]1O[C@H](O[C@H]2[C@H](O)[C@@H](O[C@H]3O[C@H](CO)[C@@H](O)[C@H](N)[C@H]3O)[C@H](N)C[C@@H]2N)[C@H](N)C[C@@H]1O [Tobra] | – | – | – | – | – | – | – | – | – | – | – | – | – | – | – | – | – | – | – | – | Passage MIC Passage #1 (Untreated) ([16]; Passage #1, MIC of agent on untreated culture): 0.125 µg/mL; Passage MIC Passage #1 ([16]; Passage #1, colonies from spot dilution, duplicates (1),(2)): 0.5 µg/mL; Passage MIC Passage #2 (Untreated) ([16]; Passage #2, MIC of agent on untreated culture): 0.125 µg/mL; Passage MIC Passage #2 ([16]; Passage #2, colonies from spot dilution, duplicates (1),(2)): 0.5 µg/mL; Passage MIC Passage #3 (Untreated) ([16]; Passage #3, MIC of agent on untreated culture): 0.125 µg/mL; Passage MIC Passage #3 ([16]; Passage #3, colonies from spot dilution, duplicates (1),(2)): 0.5 µg/mL; Passage MIC Passage #4 (Untreated) ([16]; Passage #4, MIC of agent on untreated culture): 0.125 µg/mL; Passage MIC Passage #4 ([16]; Passage #4, colonies from spot dilution, duplicates (1),(2)): 0.5 µg/mL; Passage MIC Passage #5 (Untreated) ([16]; Passage #5, MIC of agent on untreated culture): 0.125 µg/mL; Passage MIC Passage #5 ([16]; Passage #5, colonies from spot dilution, duplicates (1),(2)): 1 µg/mL |
| MARRKKMKGKRDKRVFKQTANKTKAINISPKNMRGGTRL [Unp3] | 8 µg/mL | – | 8 µg/mL | 0.5 µg/mL | 4 µg/mL | 2 µg/mL | 4 | 32 µg/mL | – | – | – | – | – | – | >8 µg/mL | >8 µg/mL | >8 µg/mL | >8 µg/mL | >8 µg/mL | >8 µg/mL | MIC50 [2, 20]: >8 µg/mL; MIC100 [2, 20]: >8 µg/mL; MIC Range [2, 20]: >8 µg/mL; MIC50 [3, 21]: >8 µg/mL; MIC100 [3, 21]: >8 µg/mL; MIC Range [4]: >8 µg/mL; MIC50 [15]: >8 µg/mL; MIC100 [15]: >8 µg/mL; MIC Range [15]: >8 µg/mL; MIC [17, 22]: 8 µg/mL; MIC [17, 23]: >8 µg/mL; MIC [17, 24]: >8 µg/mL; MIC [17, 25]: >8 µg/mL; MIC [17, 26]: >8 µg/mL; MIC [17, 27]: >8 µg/mL; MIC [17, 28]: >8 µg/mL |
| MIVRRHKMSRRRSRKLFSKTASRTRSKNLRSRPMRGGYRI [Unp4] | 2 µg/mL | >16 µg/mL | – | – | – | – | – | – | 16 µg/mL | 4 µg/mL | 1 µg/mL | 4 µg/mL | 4 µg/mL | 4 µg/mL | – | – | – | – | – | – | MIC [13, 19]: 32 µg/mL; MIC [13, 18]: 16 µg/mL |
| MRKRMSKRVDKKVFRRTAASAKKINIDPKIYRGGIRL [Osp1] | 16 µg/mL | – | 32 µg/mL | 0.5 µg/mL | 0.125 µg/mL | 32 µg/mL | 4 | 32 µg/mL | – | – | – | – | – | – | >8 µg/mL | >8 µg/mL | >8 µg/mL | >8 µg/mL | 8 µg/mL | 8 µg/mL | MIC Range [14]: >8 µg/mL; MIC Range [4]: >8 µg/mL; MIC Range [5]: 2 to 8 µg/mL; MIC50 [15]: >8 µg/mL; MIC100 [15]: >8 µg/mL; MIC Range [15]: >8 µg/mL; MIC [17, 22]: >8 µg/mL; MIC [17, 23]: >8 µg/mL; MIC [17, 24]: >8 µg/mL; MIC [17, 25]: >8 µg/mL; MIC [17, 26]: >8 µg/mL; MIC [17, 27]: >8 µg/mL; MIC [17, 28]: 8 µg/mL |
| MRRKKMSRGKSKKLFRRTAKRVHRKNLRARPMRGGIRM [AVQ206] | 0.5 µg/mL | 0.25 µg/mL | – | – | – | – | <0.25 | 4 µg/mL | 16 µg/mL | 2 µg/mL | 1 µg/mL | 4 µg/mL | 4 µg/mL | 2 µg/mL | – | – | – | – | – | – | – |
| MLTVWSDTPTIKRRKDMYRKRMSRKKSKKVFAKTAMKVNKRNHVKPMRGGYRI [Gkh3] | 0.5 µg/mL | 1 µg/mL | 4 µg/mL | 2 µg/mL | 4 µg/mL | 4 µg/mL | 0.5 | >128 µg/mL | – | – | – | – | – | – | 8 µg/mL | >8 µg/mL | >8 µg/mL | >8 µg/mL | 0.5 µg/mL | 1 µg/mL | MIC50 [2, 20]: 4 µg/mL; MIC100 [2, 20]: 4 µg/mL; MIC50 [3, 21]: 1 µg/mL; MIC100 [3, 21]: 4 µg/mL; MIC Range [3, 21]: 0.5 to 8 µg/mL; MIC Range [5]: 0.25 to 1 µg/mL; MIC50 [15]: 8 µg/mL; MIC100 [15]: >8 µg/mL; MIC [17, 22]: 2 µg/mL; MIC [17, 23]: >8 µg/mL; MIC [17, 24]: >8 µg/mL; MIC [17, 25]: >8 µg/mL; MIC [17, 26]: 8 µg/mL; MIC [17, 27]: 8 µg/mL; MIC [17, 28]: 2 µg/mL |
| MRPVKRSRVNKARSAGKFRKQVGKTKMANLRSNPMRGGWRL [HH3930] | 2 µg/mL | 4 µg/mL | – | – | – | – | 2 | 4 µg/mL | 16 µg/mL | 8 µg/mL | 4 µg/mL | 16 µg/mL | 16 µg/mL | 32 µg/mL | – | – | – | – | – | – | – |
